# Results from US4087461A, “Anti-androgenic steroids” (The Johns Hopkins University, priority 1977, dated 1978).
# “Also recorded” adds a separate entry of the source.
# Key:
# [1] = tested on: endogenous androgen biosynthesis; assay: study in intact male rats: weights of sex accessory tissue and other organs; format: in vivo, male Sprague-Dawley rats; details: 7 days; for Adrenal weight (± Sem): control 28 ± 2; for Dorsal Lateral Prostate weight (± Sem): control 252 ± 14; for Seminal Vesicles weight (± Sem): control 470 ± 26; for Ventral Prostate weight (± Sem): control 482 ± 24; for Kidney weight (± Sem): control 1410 ± 38; for Testis weight (± Sem): control 1580 ± 23
# Description: Studies with intact male Sprague-Dawley rats (300g body weight) are illustrated for compounds (1) and (2).
# Similarly, compound (2), […] rats at a dosage of 20mg per kilo for 7 days produced 20% reduction in weight of the ventral prostate and 28% reduction of the dorsal lateral prostate.
# The following data illustrates the inhibiting effect of estryne and pregnyne on Δ^5 -3-ketosteroid isomerase (EC 5.3.3.1) as evidenced by a depression of the wet weight of the sex accessory tissue in the mature male rat treated with the estryne and pregnyne.
# A. Male rats were used to assess the effect of estryne on endogenous androgen biosynthesis at varying doses (1-20 mg/kg body weight). […] On the eighth day the animals were sacrificed and the ventral prostate, dorsal lateral prostate, seminal vesicles, testes, kidneys, and adrenals were removed and weighed. Samples of each tissue were preserved in 10% buffered formalin for histological examination.
# B. Male rats were treated with 19-norpregnyne by a regimen exactly as described for the estryne.
# [2] = biological target: T1, Δ^5 -3-ketosteroid isomerase (EC 5.3.3.1) (Comamonas testosteroni, UniProt P00947); assay: irreversible inactivation of crystalline purified bacterial Δ^5-3-ketosteroid isomerase by acetylenic steroids (Kitz and Wilson kinetic analysis); format: biochemical, Pseudomonas testosteroni
# Description: The inactivation is progressive with time, and half-lives in the range of 150-1320 sec are observed at concentrations of 20-200 μM of the two inhibitors. The enzymatic activities of control vessels which received only equivalent volumes of 1,4-dioxane remained constant at initial activities.
# The initial rates of inactivation of the isomerase by (1) and (2) can be analyzed by the method of Kitz and Wilson^8 since very satisfactory pseudo-first-order behavior was observed. It is assumed that [I] (inhibitor) >> [E] (enzyme), that [E.I] (the reversible enzyme-inhibitorcomplex) is at all times in equilibrium with enzyme and inhibitor, and that ^k cat >> ^k inh. The scheme for the formation of EI' (the irreversible enzyme-inhibitor derivative) may then be represented as follows.
# If the enzyme-inhibitor solution is diluted extensively prior to assay, the active enzyme (ε) = [E] + [E.I]. Then -d(ε)/dt = k3 [E.I.], and K1 = ([E][I])/[EI]. Thus [formula] where Et = total amount of enzyme in system.
# If one defines [formula] Consequently double reciprocal plots of kapp with respect to [I] should be linear, with slopes and intercepts permitting the determination of K1 and k3 where the latter is the overall rate constant for the irreversible inhibition process.
# From plots of 1n ε (residual enzymatic activity) vs. time, kapp has been determined at five inhibitor concentrations for both compounds 1 and 2, i.e. estryne and pregnyne. Strict linearity of the semilogarithmic plots has been observed in all cases, over greater than two half-lives. A plot of 1/kapp vs. 1/[I] was linear and gave k3 and K1 (FIG. 1). For compound 1, K1 = 56 μM and k3 = 1.98 × 10^-3 sec^-1, and for compound 2, K1 = 32 μM and k3 = 4.10 × 10^-3 sec^-1.
# Studies were performed using crystalline purified bacterial Δ^5 -3-ketosteroid isomerase (from P. testosteroni), under pseudo first order conditions using the kinetic analysis of R. Kitz and I. B. Wilson [J. Biol. Chem., 237, 3245 (1964)].
# [3] = biological target: T1, Δ^5 -3-ketosteroid isomerase (EC 5.3.3.1); assay: as above; format: biochemical, Pseudomonas testosteroni; details: 24 hr at 4° vs. 1 mM potassium phosphate buffer, pH 7.0
# [4] = biological target: T2, cytosol androgen receptor (prostate androgen binding protein) (Rattus norvegicus, UniProt P15207); assay: inhibition of nuclear uptake of ^3H-dihydrotestosterone in ventral prostate minces (binding to the prostatic androgen receptor)
# T2 construct: freshly minced ventral prostate tissue obtained from rats castrated 24 hours before sacrifice; from tissue; host or cells: ventral prostate minces of castrated rats
# T2 sequence (P15207 1-902): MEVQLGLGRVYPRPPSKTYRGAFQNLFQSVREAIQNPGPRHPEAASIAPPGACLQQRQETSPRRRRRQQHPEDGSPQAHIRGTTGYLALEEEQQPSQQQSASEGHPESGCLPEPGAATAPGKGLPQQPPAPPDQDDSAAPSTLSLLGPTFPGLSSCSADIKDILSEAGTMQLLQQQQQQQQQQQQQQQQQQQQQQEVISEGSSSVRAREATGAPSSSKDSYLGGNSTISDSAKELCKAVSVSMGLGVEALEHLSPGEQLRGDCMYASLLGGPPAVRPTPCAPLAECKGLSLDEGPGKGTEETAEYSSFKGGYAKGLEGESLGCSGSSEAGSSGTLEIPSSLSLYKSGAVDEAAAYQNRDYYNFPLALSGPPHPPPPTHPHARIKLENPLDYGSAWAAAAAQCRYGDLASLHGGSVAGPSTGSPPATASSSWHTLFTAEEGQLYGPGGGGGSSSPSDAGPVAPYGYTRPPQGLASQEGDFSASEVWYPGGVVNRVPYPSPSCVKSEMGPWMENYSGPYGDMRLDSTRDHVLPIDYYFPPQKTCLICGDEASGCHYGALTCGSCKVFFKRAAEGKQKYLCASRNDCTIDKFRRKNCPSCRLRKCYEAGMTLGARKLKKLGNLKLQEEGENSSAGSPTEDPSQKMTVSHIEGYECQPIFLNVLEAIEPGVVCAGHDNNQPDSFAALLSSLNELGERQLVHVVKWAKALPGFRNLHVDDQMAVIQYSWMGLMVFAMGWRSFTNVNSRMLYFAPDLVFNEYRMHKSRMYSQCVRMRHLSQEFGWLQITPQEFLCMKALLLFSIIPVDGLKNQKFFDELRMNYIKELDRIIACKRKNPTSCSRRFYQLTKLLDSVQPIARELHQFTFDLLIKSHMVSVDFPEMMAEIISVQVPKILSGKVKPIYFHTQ
# Description: The binding to the cytosol androgen receptor was determined by the procedure of Fang (5) with modification. […] The amount of radioactivity in the nuclei is expressed as observed counts per minute per 100 μg DNA.
# [5] = 20mg per kilo per day, i.p. in propylene glycol
# T1 sequence (P00947 whole entry, stated change not applied): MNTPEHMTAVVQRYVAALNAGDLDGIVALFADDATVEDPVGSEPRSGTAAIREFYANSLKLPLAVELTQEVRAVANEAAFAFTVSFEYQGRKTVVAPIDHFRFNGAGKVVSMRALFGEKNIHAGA
smiles,measurement,setting,value
"CC(=O)[C@H]1CC[C@H]2[C@@H]3CC#CCC(=O)CCC(=O)[C@H]3CC[C@]12C [Compound 2, 5,10-seco-19-norpregn-5-yne-3,10,20-trione]",reduction in weight of the dorsal lateral prostate,[1]; [5],28%
same,reduction in weight of the ventral prostate,[1]; [5],20%
same,dose dependence of the effect on prostatic weight,"[1]; 1-20 mg/kg, in words",dose dependent
same,Adrenal weight (± Sem),[1]; pregnyne 1 mg/kg daily i.p.,22 ± 2 mg
same,Dorsal Lateral Prostate weight (± Sem),[1]; pregnyne 1 mg/kg daily i.p.,205 ± 14 mg
same,Seminal Vesicles weight (± Sem),[1]; pregnyne 1 mg/kg daily i.p.,423 ± 21 mg
same,Ventral Prostate weight (± Sem),[1]; pregnyne 1 mg/kg daily i.p.,405 ± 18 mg
same,Kidney weight (± Sem),[1]; pregnyne 1 mg/kg daily i.p.,1360 ± 48 mg
same,Testis weight (± Sem),[1]; pregnyne 1 mg/kg daily i.p.,1530 ± 68 mg
same,Adrenal weight (± Sem),[1]; pregnyne 5 mg/kg daily i.p.,25 ± 2 mg
same,Dorsal Lateral Prostate weight (± Sem),[1]; pregnyne 5 mg/kg daily i.p.,208 ± 11 mg
same,Seminal Vesicles weight (± Sem),[1]; pregnyne 5 mg/kg daily i.p.,384 ± 17 mg
same,Ventral Prostate weight (± Sem),[1]; pregnyne 5 mg/kg daily i.p.,402 ± 27 mg
same,Kidney weight (± Sem),[1]; pregnyne 5 mg/kg daily i.p.,1370 ± 42 mg
same,Testis weight (± Sem),[1]; pregnyne 5 mg/kg daily i.p.,1510 ± 44 mg
same,Adrenal weight (± Sem),[1]; pregnyne 10 mg/kg daily i.p.,26 ± 1 mg
same,Dorsal Lateral Prostate weight (± Sem),[1]; pregnyne 10 mg/kg daily i.p.,182 ± 19 mg
same,Seminal Vesicles weight (± Sem),[1]; pregnyne 10 mg/kg daily i.p.,390 ± 14 mg
same,Ventral Prostate weight (± Sem),[1]; pregnyne 10 mg/kg daily i.p.,386 ± 20 mg
same,Kidney weight (± Sem),[1]; pregnyne 10 mg/kg daily i.p.,1310 ± 60 mg
same,Testis weight (± Sem),[1]; pregnyne 10 mg/kg daily i.p.,1530 ± 53 mg
same,Adrenal weight (± Sem),[1]; pregnyne 20 mg/kg daily i.p.,31 ± 2 mg
same,Dorsal Lateral Prostate weight (± Sem),[1]; pregnyne 20 mg/kg daily i.p.,180 ± 14 mg
same,Seminal Vesicles weight (± Sem),[1]; pregnyne 20 mg/kg daily i.p.,380 ± 9 mg
same,Ventral Prostate weight (± Sem),[1]; pregnyne 20 mg/kg daily i.p.,360 ± 21 mg
same,Kidney weight (± Sem),[1]; pregnyne 20 mg/kg daily i.p.,1360 ± 43 mg
same,Testis weight (± Sem),[1]; pregnyne 20 mg/kg daily i.p.,1480 ± 63 mg
same,irreversible inhibition / inactivation of the enzyme,[2]; in words,rapid irreversible inhibition; also recorded: rapid irreversible and complete inactivation of the enzyme; also recorded: Powerful irreversible inhibition
same,half-life of enzyme inactivation,"[2]; pH 7.0, 20-200 μM of the two inhibitors, in 1,4-dioxane",2.5 to 22 min
same,kinact,"[2]; pH 7, pseudo first order conditions, five inhibitor concentrations (10-fold range), read-out: k3, overall rate constant for the irreversible inhibition process",0.0041 s⁻¹
same,Ki,"[2]; pseudo first order conditions, five inhibitor concentrations (10-fold range), read-out: K1 (KI), inhibitor dissociation constant",32 µM
same,restoration of enzymatic activity by prolonged dialysis,[3],inability to restore enzymatic activity
same,remaining activity at 2 µM,"[4]; rat, 1 h, pH 7.4, steroid 2 × 10^-6 M with ^3H-DHT 2 × 10^-9 M, read-out: nuclear uptake of ^3H-DHT, % Control",137%
same,CPM/100 DNA (nuclear uptake of ^3H-DHT),"[4]; steroid 2 × 10^-6 M with ^3H-DHT 2 × 10^-9 M, control 8,471","11,636 CPM/100 DNA"
same,inhibition of androgen uptake by the nuclei,"[4]; ventral prostate minces, in words",no inhibition of androgen uptake by the nuclei
